The values below come from patent US10596296B2, “Heparan sulphates” (Agency for Science, Technology and Research, priority 2014, dated 2020).

The subject of assay [1] is TGF-β1 signaling (pSMAD2, pSMAD3) in hMSCs. Nature of the assay: Western blotting of pSMAD2/pSMAD3 in hMSCs treated with TGF-β1 and GAG. It counts as cell-based, human. The settings on record: TGF-β1 1 ng/ml pre-incubated with 10 μg/ml GAG; 6 h. On the procedure:
Primary hMSCs (Lonza) were isolated from the bone marrow mononuclear cells of a young healthy adult human donor by plastic adherence and characterized as previously described (30,31). The adherent cells were maintained in a basal media consisting of DMEM-low glucose (1000 mg/l, DMEM-LG) supplemented with 10% fetal calf serum, 100 U/ml penicillin, 100 μg/ml streptomycin and 2 mM L-glutamine, and cultured under standard conditions at 37° C. and 5% CO2 in a humidified atmosphere. Media replacement was every three days. Cells were detached with 0.125% trypsin/Versene (pH 7.0) upon reaching 75-80% confluence, and re-plated at a density of 3,000 cells/cm^2 under the same culture conditions. All experiments were carried out with cells at passage 5.
Human MSCs were cultured in 6-well plates in basal media for 24 h at a density of 10,000 cells/cm^2. TGF-β1 treatments were then prepared at either 1 ng/ml or 5 ng/ml alone or in the presence of either 10 μg/ml or 40 μg/ml of full length heparin, or 1 ng/ml of TGF-β1 with 10 μg/ml size-fractionated or selectively desulfated heparin, HS^PM, HS16+ or HS16−, and incubated at room temperature for 10 min before being added to the cells. Latent TGF-β1 (LTGF-β1) treatments were similarly prepared at 3.3 ng/ml alone or with 10 μg/ml of the various GAGs described above. For inhibitor studies, the cells were pre-treated for 30 min with 10 μM SB431542 (Sigma-Aldrich) or DMSO before treatment with TGF-β1. […] Samples were then immunoblotted with antibodies against SMAD2/3 (#3102, Cell Signaling), phosphorylated SMAD2 (pSMAD2, #3108, Cell Signaling), phosphorylated SMAD3 (pSMAD3, #9520, Cell Signaling) and actin (MAB1501R, Millipore). Densitometry was carried out using Quantity One software (version 4.6.6, Bio-Rad).
In general terms: In western blotting, separated proteins are transferred to a membrane and probed.

The target of assay [2] is T1, TGF-β1 (Homo sapiens, UniProt P01137).
T1 construct: full length mature TGF-β1 is 112 amino acids in length
T1 sequence (P01137 279-390 limits assumed): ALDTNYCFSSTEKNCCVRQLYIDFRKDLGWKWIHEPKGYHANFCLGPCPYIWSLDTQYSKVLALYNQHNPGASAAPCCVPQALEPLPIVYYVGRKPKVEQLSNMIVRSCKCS
Nature of the assay: SPR competitive binding: soluble GAG competes for TGF-β1 against heparin-coated chip. The note with it: for ability to competitively inhibit TGF-β1 binding to immobilized heparin: 200 nM TGF-β1 pre-incubated with 5 or 10 μg GAG. As for the experimental part: Biotinylated heparin was prepared based on the protocol reported by Hernaiz et al. (33). Briefly, 20 mg of heparin was filter-sterilized (0.22 μm) in 1 ml of water and incubated with 8.6 μmol of N-hydroxysuccinimide-biotin (NHS-biotin) (Pierce) in 20 μl of dimethyl sulfoxide (DMSO) for 2 h at 4° C. The biotinylated heparin was then extensively dialyzed (7000 MWCO) to remove unreacted biotin. Immobilization of the biotinylated heparin onto a streptavidin (SA) sensor chip (GE Healthcare) was carried out using the immobilization wizard on the Biacore T100 (GE Healthcare) with a targeted immobilization level of approximately 40 response units (RUs). HBS-EP running buffer (10 mM HEPES, 150 mM NaCl, 3.0 mM EDTA, 0.05% (v/v) Tween 20, pH 7.4) was used for the immobilization.
TGF-β1-heparin interactions were effected by preparing a series of TGF-β1 protein samples (50 to 800 nM final concentration) diluted in HBS-EP-0.1 running buffer (0.1% instead of 0.05% (v/v) Tween 20). […] The sample solutions were then injected over the heparin-coated chip at a flow rate of 30 μl/min for 120 s, with HBS-EP-0.1 being subsequently passed over the chip for a further 1200 s to monitor TGF-β1 dissociation. After dissociation, the sensor surface on the chip was regenerated by 2 washes of 2 M NaCl injected at 30 μl/min for 60 s. The response was measured as a function of time (sensogram) at 25° C. The maximum binding response for each condition was normalized to the response obtained from TGF-β1 alone.

The target of assay [3] is T1, TGF-β1. Nature of the assay: GAG-binding plate assay. The settings on record: wells coated with 5 μg/ml GAG. On the procedure: GAGs are immobilized in each well and then challenged with TGF-β1 according to the manufacturer's instructions. Briefly, triplicate wells are first pre-coated with 5 μg/ml of heparin, HS^PM, HS16^+ve or HS16^−ve in standard assay buffer (SAB: 100 mM NaCl, 50 mM sodium acetate, 0.2% v/v Tween 20, pH 7.2), and then incubated overnight at room temperature. The plates are next washed carefully three times with SAB, blocked with 250 μl of blocking solution (0.4% w/v fish skin gelatine, Sigma-Aldrich, in SAB) and incubated for 1 h at 37° C. TGF-β1 was then dissolved in blocking solution at a concentration of 100, 200, or 400 ng/ml. The plates are washed three times with SAB and each dilution of protein (200 μl) is dispensed into triplicate wells and incubated for 2 h at 37° C., rinsed with SAB and 200 μl of 750 ng/ml monoclonal mouse anti-TGF-β1 antibody (MAB2401, R&D Systems) added in blocking solution. Plates are then incubated for 1 h at 37° C., washed with SAB, and 200 μl of 1 μg/ml polyclonal goat anti-mouse biotinylated antibody (ab6788, Abcam) added in blocking solution. Again, plates are incubated for 1 h at 37° C., washed with SAB, and 200 μl of 220 ng/ml ExtrAvidin AP (Sigma-Aldrich) is added in blocking solution, incubated for 30 min at 37° C., and then rinsed with SAB. Finally, 200 μl of development reagent (SigmaFAST p-Nitrophenyl phosphate, Sigma-Aldrich) is added, incubated at 37° C. for 40 min and read at 405 nm within 1 h.
To determine the ability of TGF-β1 to bind to heparin, we utilized positively-charged GAG-binding plates (Iduron) as a capture substrate. GAGs were immobilized in each well and then challenged with TGF-β1 according to the manufacturer's instructions. Briefly, triplicate wells were first pre-coated with 5 μg/ml of full length heparin, size-fractionated heparin (dp14, 16, 18, 20, 22 and 24) or selectively […] heparin prepared in standard assay buffer (SAB: 100 mM NaCl, 50 mM sodium acetate, 0.2% v/v Tween 20, pH 7.2), and then incubated overnight at room temperature. The plates were next washed carefully three times with SAB, blocked with 250 μl of blocking solution (0.4% w/v fish skin gelatine, Sigma-Aldrich, in SAB) and incubated for 1 h at 37° C. TGF-β1 was then dissolved in blocking solution at a concentration of 100, 200, or 400 ng/ml. The plates were washed three times with SAB and each dilution of protein (200 μl) was dispensed into triplicate wells and incubated for 2 h at 37° C., rinsed with SAB and 200 μl of 750 ng/ml monoclonal mouse anti-TGF-β1 antibody (MAB2401, R&D Systems) added in blocking solution. […] Finally, 200 μl of development reagent (SigmaFAST p-Nitrophenyl phosphate, Sigma-Aldrich) was added, incubated at 37° C. for 40 min and read at 405 nm within 1 h.

Take 2-O-desulfated heparin: the “pSMAD2 and pSMAD3 levels” value in assay [1] is reported as “increase to levels beyond those seen in heparin-treated cells”. Also, the “ability to competitively inhibit TGF-β1 binding to immobilized heparin” value at TGF-β1 [2] was “minimal effect”. Moreover, the “reduction of TGF-β1 binding compared to fully sulfated, full-length heparin” value at TGF-β1 [3] is listed as “about 60%”.
Consider 6-O-desulfated heparin, for which the “pSMAD2 and pSMAD3 levels” value in assay [1] is reported as “stabilization of pSMAD levels”. In addition, the “loss of TGF-β1-binding ability” value on TGF-β1 [2] (200 nM TGF-β1 with 5 or 10 μg GAG, relative to heparin) is on record as “approximately 40%”. On TGF-β1 [3], the “reduction of TGF-β1 binding compared to fully sulfated, full-length heparin” value is on record as “approximately 80%”.
For N-desulfated heparin, the “pSMAD2 and pSMAD3 levels” value in assay [1] is recorded as “did not lead to an increase in pSMAD levels”. Besides, the “ability to competitively inhibit TGF-β1 binding to immobilized heparin” value on TGF-β1 [2] is “abrogated”. Moreover, the “TGF-β1 binding to immobilized GAG” value on TGF-β1 [3] (TGF-β1 100, 200 or 400 ng/ml) is given as “essentially abolished”.
